Assay results: US20070219243A1, “Method for improving the pharmacokinetics of HIV integrase inhibitors” (priority 2005, published 2007)
“Also recorded” adds a separate entry of the source.

What was measured:
[1] = Example 1: pharmacokinetics of Compound 1 alone and with RTV in healthy subjects; format: in vivo, human; conditions: for Ctau / Cmax / half-life / AUC: Compound 1 in plasma; for AUC: N = 12, read-out: AUC (AUCtau)
From the text: The study was an open-label, fixed-sequence, crossover, pharmacokinetic study with 12 subjects. The subjects were healthy males and non-pregnant, nonlactating females between 18 and 45 years of age, inclusive. The duration of the study was 20 days, with Period 1 of Days 1 to 10 and Period 2 of days 11 to 20. Follow-up contact was on day 27.

[2] = Example 1: multiple-dose safety of Compound 1 alone and with RTV; format: in vivo, human
Experimental: The single-dose and multiple-dose pharmacokinetics of Compound 1 were also determined. The multiple-dose safety of Compound 1 administered alone and with RTV was also determined. Safety: Safety was evaluated by assessment of clinical laboratory tests at baseline and at various time points during the study; periodic physical examinations, including vital signs; and documentation of adverse events throughout the study. Safety: No statistical inference was performed for safety data in this pharmacokinetic study.

[3] = Example 7: food effect on pharmacokinetics of Compound 1 in healthy Japanese males; format: in vivo; conditions: male, human, plasma, po, 400 mg, single oral dose 400 mg, Mean ± SD (n = 6); for half-life: read-out: t1/2 λz (converted)
Experimental: Subjects in the 400 mg fasted cohort received an additional 400 mg dose with breakfast after a washout period (generally a minimum of ten days after the initial administration). The interval of ten days between the two doses was considered appropriate for eliminating any within-subject carryover effects. […] Doses were administered at similar times for each subject in each treatment period. […] Plasma samples were isolated from healthy subjects administered with Compound 1. The plasma samples were extracted by solid phase extraction using Empore™ Disk Plate (C8SD), and then measured by high-performance liquid chromatography/tandem mass spectrometry (LC/MS/MS) (HPLC model 2795 separations module from Waters; mass spectrometer model AP14000 from MDS SCIEX). Ionization and detection were performed with electrospray ionization and positive ion detection with multiple reaction monitoring, respectively. […] To 50 μL of plasma samples spiked with […] each of 90% acetonitrile and 20 mmol/L ammonium formate-formic acid buffer (pH 3.0)/acetonitrile (10:90, v/v), 10 μL each of internal standard solution was added. To these samples, 200 μL of 0.1% formic acid in 10% acetonitrile was added. These solutions were then mixed for 10 seconds and centrifuged at 10,000 rpm for 5 minutes at 4° C. A 250 μL aliquot of the supernatant was added to a Empore™ Disk Plate (C8SD) (conditioned with 150 μL of acetonitrile and 200 μL of 0.1% formic acid in this order). The plate was washed twice with 200 μL of 0.1% formic acid in 20% acetonitrile and eluted twice with 100 μL of 0.1% formic acid in 80% acetonitrile (200 μL in total). To the eluates, 200 μL of 0.1% formic acid was added and mixed. Then, 10 μL of each solution was injected into the LC/MS/MS system and analyzed.

[4] = Example 3: pharmacokinetics of Compound 1 and RTV at a range of RTV doses; conditions: for Ctau / AUC / Cmax / half-life: Compound 1 in plasma, mean (CV %); for IQ: based on protein binding-adjusted IC50 in PBMCs; for AUC / Cmax / half-life: both, human, plasma, oral; for AUC: AUCtau
[5] = Example 5: drug-drug interaction of zidovudine and Compound 1/r; conditions: human, in vivo
From the text: Zidovudine is a NRTI used in HIV patients.
PK parameters were estimated using WinNonlin™ 5.0.1 (Pharsight Corporation, Mountain View, Calif., USA).

[6] = system: HIV-1; test: Example 2: exposure-response (Emax model) and inhibitory quotient; format: in vivo; conditions: simple Emax model on Ctau
[7] = in vivo
Experimental: Pharmacokinetic (PK) blood draws were performed on days 7, 17, and 27.

[8] = biological target: HIV-1 integrase (Human immunodeficiency virus type 1 group M subtype B, UniProt P04585); conditions: after 10 days of monotherapy; through Day 21
[9] = Example 2: safety in subjects infected with HIV-1; format: in vivo, human
Experimental: Safety: Adverse events, vital signs, electrocardiogram, ophthalmologic examination, and clinical laboratory tests were evaluated for safety. Safety: The proportion of subjects with adverse events was summarized by treatment, system organ class and preferred term for treatment-emergent adverse events, treatment-related adverse events, serious adverse events, and adverse events leading to study drug discontinuation. Adverse events were coded using the Medical Dictionary for Regulatory Activities (MedDRA®) version 8.1. […] Laboratory results were expressed on the original measurement scale and in terms of the toxicity grade. Changes from baseline in quantitative laboratory tests were summarized by visit.

[10] = human, in vivo
Experimental: Safety, tolerability, pharmacokinetics, and efficacy were monitored through Day 21 after dosing. The active treatments in the 5 cohorts were as follows: […] The duration of the study was 21 days, with 10 days of treatment and 11 days of follow-up. […] Matching placebo was administered orally under fed conditions. For Cohort 5 only, 100 mg RTV capsules were coadministered orally under fed conditions. […] Pharmacokinetics: The pharmacokinetic parameters of Compound 1 in plasma and peripheral blood mononuclear cells were summarized using descriptive statistics.

[11] = both sexes, human, plasma, oral, 100 mg, Day 10, Compound 1 100 mg twice daily alone, mean (% CV)
[12] = both sexes, human, plasma, oral, Day 11, Compound 1 100 mg twice daily + single dose RTV 100 mg, mean
[13] = both sexes, human, plasma, oral, Day 20, Compound 1 100 mg + RTV 100 mg twice daily, mean
[14] = healthy subjects, Compound 1 100 mg twice daily alone, or with RTV 100 mg twice daily
[15] = Compound 1 125 mg + 20 mg RTV QD
[16] = Compound 1 125 mg + 50 mg RTV QD
[17] = Compound 1 125 mg + 100 mg RTV QD
[18] = Compound 1 125 mg + 200 mg RTV QD
[19] = 200 mg of Compound 1 twice-daily, 6 subjects

COc1cc2c(cc1Cc1cccc(Cl)c1F)c(=O)c(C(=O)O)cn2[C@H](CO)C(C)C [Compound 1, 6-(3-chloro-2-fluorobenzyl)-1-[(2S)-1-hydroxy-3-methylbutan-2-yl]-7-methoxy-4-oxo-1,4-dihydroquinoline-3-carboxylic acid]
mean steady-state exposure (AUCtau, Day 10) lower compared with mean exposure (AUCinf) after a single dose (Day 1) ([1]; Compound 1 100 mg alone, indicating autoinduction of metabolism): approximately 20% | Ctau ([1]; end of dosing interval, Day 1, Compound 1 100 mg alone, mean (% CV)): 19.2 (52.5) ng/mL | Ctau ([1]; Day 10, Compound 1 100 mg twice daily alone, mean (% CV)): 12.4 (63.7) ng/mL | Ctau ([1]; Day 11, Compound 1 100 mg twice daily + single dose RTV 100 mg, mean): 543.3 ng/mL | Ctau ([1]; Day 20, Compound 1 100 mg + RTV 100 mg twice daily, mean): 1035.6 ng/mL | Cmax ([1]; both sexes, human, plasma, oral, 100 mg, Day 1, single dose Compound 1 100 mg alone, mean (% CV)): 200 ng/mL | half-life ([1]; both sexes, human, plasma, oral, 100 mg, Day 1, single dose Compound 1 100 mg alone, median (min, max)): 186 min | half-life ([1]; both sexes, human, plasma, oral, 100 mg, Day 10, Compound 1 100 mg twice daily alone, steady state, median (min, max)): 210 min | Cmax [1, 11]: 164 ng/mL | AUC [1, 11]: 719 ng·h/mL | AUC(0-inf) ([1]; both sexes, human, plasma, oral, 100 mg, read-out: AUC (AUCinf)): 908 ng·h/mL | Cmax [1, 12]: 795 ng/mL | AUC [1, 12]: 6170 ng·h/mL | half-life ([1]; both sexes, human, plasma, oral, Day 11, Compound 1 100 mg twice daily + single dose RTV 100 mg, median): 1090 min | half-life ([1]; both sexes, human, plasma, oral, Day 20, Compound 1 100 mg + RTV 100 mg twice daily, steady state, median): 570 min | Cmax [1, 13]: 1830 ng/mL | AUC [1, 13]: 14300 ng·h/mL | Subjects with treatment-emergent AEs considered related to study drugs [2, 14]: 2 of 12 | Subjects with treatment-emergent adverse events [2, 14]: 4 of 12 | Tolerability ([2]; oral, 100 mg twice daily, Compound 1 up to 20 days, with RTV 100 mg twice daily up to 10 days): well tolerated | AUC(0-inf) ([3]; Fasted): 1450 ± 308 ng·h/mL | Cmax ([3]; Fasted): 264 ± 78 ng/mL | Tmax ([3]; Fasted): 2.5 ± 1.2 h | half-life ([3]; Fasted): 324 ± 60 min | AUC(0-inf) ([3]; Fed): 3940 ± 1070 ng·h/mL | Cmax ([3]; Fed): 903 ± 391 ng/mL | Tmax ([3]; Fed): 2.3 ± 1 h | half-life ([3]; Fed): 192 ± 18 min | Ctau [4, 15]: 73.8 (60.2) ng/ml | Ctau [4, 16]: 251 (27.7) ng/ml | Ctau [4, 17]: 380 (39.9) ng/ml | Ctau [4, 18]: 410 (26.0) ng/ml | IQ [4, 15]: 10.3 | IQ [4, 16]: 35.0 | IQ [4, 17]: 53.0 | IQ [4, 18]: 57.2 | AUC ([4]; Compound 1 125 mg + 20 mg RTV QD, after a meal): 10200 ng·h/mL | AUC [4, 16]: 15800 ng·h/mL | AUC [4, 17]: 20300 ng·h/mL | AUC [4, 18]: 20600 ng·h/mL | Cmax [4, 15]: 1370 ng/mL | Cmax [4, 16]: 1560 ng/mL | Cmax [4, 17]: 1830 ng/mL | Cmax [4, 18]: 2030 ng/mL | half-life [4, 15]: 260 min | half-life [4, 16]: 571 min | half-life [4, 17]: 690 min | half-life [4, 18]: 858 min | Half-life (48 hour PK profile) [5]: supporting once daily dosing | Emax [6]: 2.32 log10 copies/mL reduction from baseline | PK (Cmax, AUCtau, Ctau) during co-administration vs alone [7]: unaffected | HIV-1 integrase mutations corresponding to Compound 1 resistance [8]: no subject developed HIV-1 integrase mutations; also recorded: No Compound 1 resistance mutations were detected | Subjects with treatment-emergent Grade 3 or 4 laboratory abnormalities ([9]; 50 mg of Compound 1+RTV once-daily, 6 subjects): 1 subject | Subjects with treatment-related fatigue [9, 19]: 2 subjects | Subjects with treatment-related nausea [9, 19]: 2 subjects | Subjects with treatment-emergent Grade 3 or 4 laboratory abnormalities ([9]; 400 mg of Compound 1 twice-daily, 6 subjects): 1 subject | Tolerability ([9]; all dose levels, 10 days, HIV-1 infected subjects): generally well tolerated | Dose proportionality of pharmacokinetics [10]: did not exhibit dose-proportional increases
